Laboratory results reported in PubChem BioAssay AID256 (DTP/NCI, 2004).
Values joined by “and” are separate entries in the source; they are usually repeats but may differ in a detail not shown here. Equal values may be shown once. Toxic doses and inconclusive results are not listed. Rule for the calls: active = survival T/C of 150% or more; inactive = T/C below 125% in these data.

Test system: CD2F1 mice, L1210 leukemia ip, survival T/C
Assay: NCI In Vivo Anticancer Drug Screen. Data for tumor model L1210 Leukemia (intraperitoneal) in CD2F1 (CDF1) mice
Conditions: endpoint: mean survival time, higher = longer survival
Procedure, shortened: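 Compound-dosed mice with transplantable tumor versus matched vehicle controls; endpoint ratio T/C reported.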

[1] = dose: 25.0 mg/kg/injection, schedule: Q01DX009 (ip), vehicle: saline with Tween-80
[2] = dose: 50.0 mg/kg/injection, schedule: Q01DX009 (ip), vehicle: saline with Tween-80
[3] = dose: 100.0 mg/kg/injection, schedule: Q01DX009 (ip), vehicle: saline with Tween-80
[4] = dose: 200.0 mg/kg/injection, schedule: Q01DX009 (ip), vehicle: saline with Tween-80
[5] = dose: 400.0 mg/kg/injection, schedule: Q01DX009 (ip), vehicle: saline with Tween-80
[6] = dose: 100.0 mg/kg/injection, schedule: Q04DX002 (ip), vehicle: saline with Tween-80
[7] = dose: 200.0 mg/kg/injection, schedule: Q04DX002 (ip), vehicle: saline with Tween-80
[8] = dose: 12.5 mg/kg/injection, schedule: Q01DX009 (ip), vehicle: saline with Tween-80
[9] = dose: 200.0 mg/kg/injection, schedule: Q01DX001 (ip), vehicle: saline with Tween-80
[10] = dose: 400.0 mg/kg/injection, schedule: Q01DX001 (ip), vehicle: saline with Tween-80
[11] = dose: 100.0 mg/kg/injection, schedule: Q04DX003 (ip), vehicle: saline with Tween-80
[12] = dose: 200.0 mg/kg/injection, schedule: Q04DX003 (ip), vehicle: saline with Tween-80
[13] = dose: 400.0 mg/kg/injection, schedule: Q04DX003 (ip), vehicle: saline with Tween-80

Measured: T/C

CCC1(C)CC(=O)NC(=O)C1
inactive: dose: 2.5 mg/kg/injection, schedule: Q01DX009 (ip), vehicle: saline with Tween-80 97 % of control | dose: 5.0 mg/kg/injection, schedule: Q01DX009 (ip), vehicle: saline with Tween-80 100 % of control | dose: 10.0 mg/kg/injection, schedule: Q01DX009 (ip), vehicle: saline with Tween-80 94 % of control

CC(=O)NC(Cc1ccc(F)cc1)C(=O)O (stereo not given)
inactive: [1] 95 % of control and 97 % of control | [2] 97 % of control and 98 % of control | [3] 95 % of control and 103 % of control | [4] 95 % of control and 101 % of control | [5] 98 % of control and 101 % of control | dose: 800.0 mg/kg/injection, schedule: Q01DX009 (ip), vehicle: saline with Tween-80 97 % of control and 105 % of control

C=CCN(CC=C)C(=O)NCC(=O)OCC
inactive: [2] 101 % of control | [3] 95 % of control | [4] 97 % of control

COC1OC2COC(c3ccccc3)OC2C2OC12 (stereo not given)
inactive: [3] 94 % of control | [4] 92 % of control | [5] 97 % of control

Cc1cn(CC(=O)C2(O)CCC3C4CCC5=CC(=O)CCC5(C)C4C(=O)CC32C)c(=O)[nH]c1=O (stereo not given)
inactive: dose: 12.5 mg/kg/injection, schedule: Q04DX003 (ip), vehicle: Klucel (hydroxypropylcellulose) (HPC) 94 % of control | dose: 25.0 mg/kg/injection, schedule: Q04DX003 (ip), vehicle: Klucel (hydroxypropylcellulose) (HPC) 105 % of control | dose: 50.0 mg/kg/injection, schedule: Q04DX003 (ip), vehicle: Klucel (hydroxypropylcellulose) (HPC) 94 % of control | dose: 100.0 mg/kg/injection, schedule: Q04DX003 (ip), vehicle: Klucel (hydroxypropylcellulose) (HPC) 94 % of control | dose: 200.0 mg/kg/injection, schedule: Q04DX003 (ip), vehicle: Klucel (hydroxypropylcellulose) (HPC) 94 % of control

Cc1ccc(CCC=O)o1
inactive: dose: 50.0 mg/kg/injection, schedule: Q04DX002 (ip), vehicle: saline with Tween-80 100 % of control | [6] 100 % of control | [7] 100 % of control

CCCCC(=O)NN
inactive: [8] 90 % of control | [1] 104 % of control | [2] 118 % of control

CC(C)c1ccc2c(c1)CC[C@H]1[C@](C)(CN=C(N)CCl)CCC[C@]21C
inactive: [6] 102 % of control | [7] 95 % of control

COc1ccc(OCCOC(=O)Nc2cc(Cl)c(OC)cc2OC)cc1
inactive: [8] 106 % of control | [1] 103 % of control | [2] 106 % of control | [3] 92 % of control | [4] 92 % of control

CC(=O)O.[Ag]
inactive: dose: 5.0 mg/kg/injection, schedule: Q01DX001 (ip), vehicle: saline 93 % of control | dose: 10.0 mg/kg/injection, schedule: Q01DX001 (ip), vehicle: saline 96 % of control | dose: 20.0 mg/kg/injection, schedule: Q01DX001 (ip), vehicle: saline 97 % of control | dose: 40.0 mg/kg/injection, schedule: Q01DX001 (ip), vehicle: saline 100 % of control | dose: 80.0 mg/kg/injection, schedule: Q01DX001 (ip), vehicle: saline 100 % of control | dose: 100.0 mg/kg/injection, schedule: Q01DX001 (ip), vehicle: saline 91 % of control

O=C1C(c2ccccc2)=[N+]([O-])[N+]([O-])=C1c1ccccc1
inactive: dose: 50.0 mg/kg/injection, schedule: Q01DX009 (ip), vehicle: Klucel (hydroxypropylcellulose) (HPC) 97 % of control | dose: 100.0 mg/kg/injection, schedule: Q01DX009 (ip), vehicle: Klucel (hydroxypropylcellulose) (HPC) 97 % of control | dose: 200.0 mg/kg/injection, schedule: Q01DX009 (ip), vehicle: Klucel (hydroxypropylcellulose) (HPC) 101 % of control

C=C(Br)CNC(=O)C(O)(c1ccccc1)c1ccccc1
inactive: dose: 100.0 mg/kg/injection, schedule: Q01DX001 (ip), vehicle: saline with Tween-80 103 % of control | [9] 87 % of control | [10] 89 % of control

O=C(O)C/[N+]([O-])=N\O
inactive: dose: 100.0 mg/kg/injection, schedule: Q04DX003 (ip), vehicle: saline 96 % of control | dose: 200.0 mg/kg/injection, schedule: Q04DX003 (ip), vehicle: saline 102 % of control | dose: 400.0 mg/kg/injection, schedule: Q04DX003 (ip), vehicle: saline 105 % of control

COc1cc(Cl)ccc1NC(=O)Nc1ccc(CCO)cc1
inactive: [2] 93 % of control | [3] 93 % of control

COc1cc(NC(=O)Nc2ccccc2C)c(OC)cc1Cl
inactive: [6] 90 % of control | [7] 90 % of control | dose: 400.0 mg/kg/injection, schedule: Q04DX002 (ip), vehicle: saline with Tween-80 86 % of control

O=C(N1CCC2(CC1)SSC1(CCN(C(=O)C(F)(F)F)CC1)S2)C(F)(F)F
inactive: [11] 88 % of control | [12] 90 % of control | [13] 90 % of control

CC(=O)Nc1ccccc1C(=O)C(=O)Nc1ccccc1C(=O)NN
inactive: [2] 95 % of control | [3] 91 % of control | [4] 87 % of control

CC1=C2C(=CC(C)(CO)C2O)C(O)C(C)(O)C12CC2 (stereo not given)
inactive: dose: 1.56 mg/kg/injection, schedule: Q01DX005 (ip), vehicle: water 94 % of control | dose: 3.13 mg/kg/injection, schedule: Q01DX005 (ip), vehicle: water 87 % of control | dose: 6.25 mg/kg/injection, schedule: Q01DX005 (ip), vehicle: water 89 % of control | dose: 12.5 mg/kg/injection, schedule: Q01DX005 (ip), vehicle: water 94 % of control | dose: 25.0 mg/kg/injection, schedule: Q01DX005 (ip), vehicle: water 100 % of control

OCC1C2C=CC1CC2 (stereo not given)
inactive: [11] 95 % of control | [12] 96 % of control | [13] 96 % of control

Cc1ccc(CNc2cc(C)ccn2)cc1
inactive: [11] 100 % of control | [12] 91 % of control

COc1ccc(C(O)(c2ccccc2)C(OC(=O)CCl)c2ccccc2)cc1 (stereo not given)
inactive: [9] 91 % of control | [10] 89 % of control

C[N+](C)(CCO)Cc1ccccc1
inactive: [1] 102 % of control | dose: 25.0 mg/kg/injection, schedule: Q04DX003 (ip), vehicle: saline with Tween-80 97 % of control | [2] 105 % of control | dose: 50.0 mg/kg/injection, schedule: Q04DX003 (ip), vehicle: saline with Tween-80 100 % of control | [3] 105 % of control | [11] 96 % of control and 101 % of control

O=C(NC(COCc1ccccc1)C(=O)O)OCc1ccccc1 (stereo not given)
inactive: [11] 88 % of control | [12] 92 % of control | [13] 100 % of control
